# Test results published in patent US8119695B2, “Compounds and methods for treating breast cancer and other diseases” (City of Hope, priority 2003, dated 2012).
# What was measured:
# Type in all cases: cell-based
# MH100x4 = MH100x4 luciferase reporter without receptor; settings: Table 2, dose 5 (unit not given); for Reporter Activity: None 0.49; for Fold Activation: None 1.00
# Description: (§1) MH100x4 is a luciferase reporter with four copies of a GAL4 […] response element. GAL-L refers to the ligand-binding domain of the indicated receptor fused to the C-terminus of the GAL4 DNA binding domain.
# ERRγ (GAL-ERRg) = assay: MH100x4 luciferase reporter with GAL-ERRg; set-up: Reporter Activity: unit not given here; settings: for inhibition of the activity of ERRγ: result in words
# Description: as §1
# ERRβ (GAL-L-ERRb) = biological target: T1, ERRβ (GAL-L-ERRb) (Homo sapiens, UniProt O95718); assay: MH100x4 luciferase reporter with GAL-L-ERRb; set-up: Reporter Activity: unit not given here; settings: for inhibition of the activity of ERRβ: result in words
# T1 construct: expressed in transfected cells
# T1 sequence (O95718 208-432 limits assumed): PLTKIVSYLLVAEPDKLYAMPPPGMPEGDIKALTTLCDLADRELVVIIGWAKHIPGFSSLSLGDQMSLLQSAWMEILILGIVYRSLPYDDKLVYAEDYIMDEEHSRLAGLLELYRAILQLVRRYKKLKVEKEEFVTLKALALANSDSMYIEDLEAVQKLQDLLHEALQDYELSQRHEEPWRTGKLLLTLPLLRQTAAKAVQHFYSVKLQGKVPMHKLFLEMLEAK
# Description: as §1
# ERRα (GAL-ERRa) = assay: MH100x4 luciferase reporter with GAL-ERRa; set-up: Reporter Activity: unit not given here
# Description: as §1
# [1] = Table 2, dose 5 (unit not given), None 1.00
# [2] = Table 2, dose 5 (unit not given), None 1.25
# [3] = Table 2, dose 5 (unit not given), None 1.44
# [4] = Table 2, dose 5 (unit not given), None 8.54
# [5] = Table 3, dose 2.5 (unit not given), None 1
# [6] = Table 3, dose 2.5 (unit not given), None 2.2
# [7] = Table 3, dose 2.5 (unit not given), None 2.38
# [8] = Table 3, dose 2.5 (unit not given), None 8.18
Reporter Activity (MH100x4),Fold Activation (MH100x4),Fold Activation (ERRγ (GAL-ERRg); [1]),Reporter Activity (ERRγ (GAL-ERRg); [2]),Fold Activation (ERRβ (GAL-L-ERRb); [1]),Reporter Activity (ERRβ (GAL-L-ERRb); [3]),Fold Activation (ERRα (GAL-ERRa); [1]),Reporter Activity (ERRα (GAL-ERRa); [4]),Fold Activation (ERRβ (GAL-L-ERRb); [5]),Reporter Activity (ERRβ (GAL-L-ERRb); [7]),inhibition of the activity of ERRγ (ERRγ (GAL-ERRg)),inhibition of the activity of ERRβ (ERRβ (GAL-L-ERRb)),Compound,Fold Activation (ERRγ (GAL-ERRg); [5]),Reporter Activity (ERRγ (GAL-ERRg); [6]),Fold Activation (ERRα (GAL-ERRa); [5]),Reporter Activity (ERRα (GAL-ERRa); [8])
,,,,,,,,1.01,2.4,,,CCC(=C(c1ccc(OC2CCCCO2)cc1)c1ccc(OC2CCCCO2)cc1)c1ccccc1 (stereo not drawn) [DY26],0.99,2.17,1.15,9.38
,,,,,,,,0.08,0.2,inhibit the activity,inhibit the activity,"CC/C(=C(/c1ccc(OCCN(C)C)cc1)c1ccc(OC(C)=O)cc1)c1ccccc1 [DY28, (E,Z)-4-{1-[4-(2-dimethylamino-ethoxy)-phenyl]-2-phenyl-but-1-enyl}-phenyl acetate]",0.11,0.25,0.99,8.08
,,,,,,,,0.14,0.34,inhibit the activity,inhibit the activity,"CC(C)/C(=C(\c1ccc(O)cc1)c1ccc(OCN(C)C)cc1)c1ccccc1 [DY35, (Z)-4-[1-(4-Dimethylaminomethoxy-phenyl)-3-methyl-2-phenyl-but-1-enyl]-phenol]",0.15,0.34,0.78,6.38

# The remaining lines, values behind:
Compound,Reporter Activity (MH100x4),Fold Activation (MH100x4),Fold Activation (ERRγ (GAL-ERRg); [1]),Reporter Activity (ERRγ (GAL-ERRg); [2]),Fold Activation (ERRβ (GAL-L-ERRb); [1]),Reporter Activity (ERRβ (GAL-L-ERRb); [3]),Fold Activation (ERRα (GAL-ERRa); [1]),Reporter Activity (ERRα (GAL-ERRa); [4]),Fold Activation (ERRβ (GAL-L-ERRb); [5]),Reporter Activity (ERRβ (GAL-L-ERRb); [7]),inhibition of the activity of ERRγ (ERRγ (GAL-ERRg)),inhibition of the activity of ERRβ (ERRβ (GAL-L-ERRb)),Fold Activation (ERRγ (GAL-ERRg); [5]),Reporter Activity (ERRγ (GAL-ERRg); [6]),Fold Activation (ERRα (GAL-ERRa); [5]),Reporter Activity (ERRα (GAL-ERRa); [8])
CCC(=C(CC)c1ccc(Oc2cccc(C=O)c2)cc1)c1ccc(O)cc1 [DY19],0.37,0.76,0.82,1.02,0.58,0.84,0.62,5.27,,,,,,,,
C=CCOc1ccc(C(CC)=C(CC)c2ccc(OCC=C)cc2)cc1 [DY20],0.35,0.71,0.81,1.01,0.70,1.01,0.75,6.39,,,,,,,,
CN(C)CCOc1ccc(/C(=C(/CCCl)c2ccccc2)c2ccc(O)cc2)cc1 [DY33],,,,,,,,,,,,,,0.58,,
